Reference: patent US9326986B2, “Quinazolinone, quinolone and related analogs as sirtuin modulators” (GLAXOSMITHKLINE LLC, priority 2008, dated 2016)

Molecular target: T1, SIRT1 (Homo sapiens, UniProt Q96EB6)
T1 sequence (Q96EB6 1-747): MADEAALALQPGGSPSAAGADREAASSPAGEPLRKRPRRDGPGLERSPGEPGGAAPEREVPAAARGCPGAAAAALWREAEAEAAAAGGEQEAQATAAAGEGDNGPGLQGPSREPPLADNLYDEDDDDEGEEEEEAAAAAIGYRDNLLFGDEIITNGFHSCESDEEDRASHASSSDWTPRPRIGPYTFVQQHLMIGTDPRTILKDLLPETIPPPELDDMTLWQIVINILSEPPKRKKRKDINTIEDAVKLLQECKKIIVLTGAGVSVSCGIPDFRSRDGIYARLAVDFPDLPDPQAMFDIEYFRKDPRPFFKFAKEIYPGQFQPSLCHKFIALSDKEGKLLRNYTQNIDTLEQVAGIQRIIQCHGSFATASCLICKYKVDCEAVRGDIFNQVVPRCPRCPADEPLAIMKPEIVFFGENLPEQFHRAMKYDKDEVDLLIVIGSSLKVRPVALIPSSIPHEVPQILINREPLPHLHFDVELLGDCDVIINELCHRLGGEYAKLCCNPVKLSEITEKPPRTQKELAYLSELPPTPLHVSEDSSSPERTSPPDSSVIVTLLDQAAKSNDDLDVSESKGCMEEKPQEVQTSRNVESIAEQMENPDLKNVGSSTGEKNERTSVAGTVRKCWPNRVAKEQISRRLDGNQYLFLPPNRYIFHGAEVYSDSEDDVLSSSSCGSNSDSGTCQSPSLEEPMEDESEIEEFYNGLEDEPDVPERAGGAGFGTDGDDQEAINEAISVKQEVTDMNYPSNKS
Test: Mass spectrometry based assay to identify modulators of SIRT1 activity (deacetylation of p53-based acetylated peptide)
Assay type: biochemical
Conditions: 10 nM SIRT1, 0.5 μM peptide substrate, 120 μM βNAD+, 25 minutes at 25° C.; for EC1.5 μM: SIRT1 activation

Row | % Fold Act. (percent maximum fold activation) | EC1.5 μM | SMILES
1 | A (Fold activation>200%) | A (EC1.5<1.0 μM) | O=C(Nc1ccccn1)c1cccc2c(=O)[nH]c(-c3ccccc3OC(F)(F)F)nc12 [Compound 320]
2 | A (Fold activation>200%) | A (EC1.5<1.0 μM) | Cn1c(-c2cccc(C(F)(F)F)c2)nc2c(C(=O)Nc3ccnc(CN4CCNCC4)n3)cccc2c1=O [Compound 347]
3 | A (Fold activation>200%) | A (EC1.5<1.0 μM) | Cn1c(-c2cccc(C(F)(F)F)c2)nc2c(NC(=O)c3cccc(CN4CCCC4)n3)cccc2c1=O [Compound 333]
4 | A (Fold activation>200%) | A (EC1.5<1.0 μM) | Cn1c(-c2cccc(C(F)(F)F)c2)nc2c(C(=O)Nc3nc(CN4CCNCC4)cs3)cccc2c1=O [Compound 366]
5 | A (Fold activation>200%) | A (EC1.5<1.0 μM) | Cn1c(-c2cccc(C(F)(F)F)c2)nc2c(NC(=O)c3cncc(N4CCOCC4)n3)cccc2c1=O [Compound 336]
6 | B (Fold Activation<200%) | C (EC1.5>25 μM) | Cn1c(-c2cccc(OC(F)(F)F)c2)nc2c(NC(=O)c3cscn3)cccc2c1=O [Compound 203]
7 | A (Fold activation>200%) | A (EC1.5<1.0 μM) | O=C(Nc1cccc2c(=O)[nH]c(-c3ccccc3C(F)(F)F)nc12)c1cnccn1 [Compound 317]
8 | A (Fold activation>200%) | B (EC1.5 1-25 μM) | Cn1c(-c2cccc(C(F)(F)F)c2)nc2c(C(=O)Nc3nncs3)cccc2c1=O [Compound 299]
9 | A (Fold activation>200%) | A (EC1.5<1.0 μM) | CC(C)Cn1c(-c2cccc(C(F)(F)F)c2)nc2c(NC(=O)c3cnccn3)cccc2c1=O [Compound 234]
10 | B (Fold Activation<200%) | C (EC1.5>25 μM) | CN1CCCCC1C(=O)Nc1cccc2c(=O)n(C)c(-c3cccc(C(F)(F)F)c3)nc12 (stereo not shown) [Compound 343]
11 | A (Fold activation>200%) | B (EC1.5 1-25 μM) | Cn1c(-c2cccc(C(F)(F)F)c2)nc2c(C(=O)Nc3ccncn3)cccc2c1=O [Compound 303]
12 | A (Fold activation>200%) | A (EC1.5<1.0 μM) | O=C(Nc1nccs1)c1cccc2c(=O)cc(-c3cccc(OC(F)F)c3)[nH]c12 [Compound 428]
13 | B (Fold Activation<200%) | B (EC1.5 1-25 μM) | CN1CCCC1C(=O)Nc1cccc2c(=O)n(C)c(-c3cccc(C(F)(F)F)c3)nc12 (stereo not shown) [Compound 331]
14 | A (Fold activation>200%) | A (EC1.5<1.0 μM) | O=C(Nc1nccs1)c1cccc2c(=O)cc(-c3ccccc3Cl)[nH]c12 [Compound 426]
15 | B (Fold Activation<200%) | C (EC1.5>25 μM) | Cn1c(-c2cccc(C(F)F)c2)nc2c(C(=O)Nc3ccccn3)cccc2c1=O [Compound 323]
16 | A (Fold activation>200%) | A (EC1.5<1.0 μM) | Cn1c(-c2cccc(C(F)(F)F)c2)nc2c(C(=O)Nc3nc(CN4CCCC4)cs3)cccc2c1=O [Compound 357]
17 | B (Fold Activation<200%) | C (EC1.5>25 μM) | Cn1c(C2CCCC2)nc2c(C(=O)Nc3ccccn3)cccc2c1=O [Compound 214]
18 | A (Fold activation>200%) | B (EC1.5 1-25 μM) | Cn1c(-c2cccc(C(F)(F)F)c2)nc2c(NC(=O)c3cccnc3OCC(O)CO)cccc2c1=O (stereo not shown) [Compound 334]
19 | A (Fold activation>200%) | A (EC1.5<1.0 μM) | O=C(Nc1cccnc1)c1cccc2c(=O)cc(-c3cccc(OC(F)F)c3)[nH]c12 [Compound 443]
20 | B (Fold Activation<200%) | C (EC1.5>25 μM) | Cn1c(C2CCC2)nc2c(C(=O)Nc3ccccn3)cccc2c1=O [Compound 224]
21 | A (Fold activation>200%) | A (EC1.5<1.0 μM) | O=C(Nc1cccc2c(=O)cc(-c3ccccc3C(F)(F)F)[nH]c12)c1cscn1 [Compound 444]

Row | % Fold Act. (percent maximum fold activation) | EC1.5 μM | SMILES
22 | B (Fold Activation<200%) | C (EC1.5>25 μM) | Cn1c(-c2cccc(C(F)(F)F)c2)nc2c(NC(=O)c3cccc(N4CCCC4)c3)cccc2c1=O [Compound 337]
23 | A (Fold activation>200%) | A (EC1.5<1.0 μM) | O=C(Nc1cccc2c(=O)cc(-c3cccc(C(F)(F)F)c3)[nH]c12)c1cncs1 [Compound 416]
24 | A (Fold activation>200%) | A (EC1.5<1.0 μM) | Cn1c(-c2cccc(C(F)(F)F)c2)nc2c(C(=O)Nc3cccc(CN4CC[C@@H](F)C4)n3)cccc2c1=O [Compound 345]
25 | A (Fold activation>200%) | A (EC1.5<1.0 μM) | O=C(Nc1ccccn1)c1cccc2c(=O)cc(-c3cccc(C(F)(F)F)c3)[nH]c12 [Compound 401, 4-oxo-N-(pyridin-2-yl)-2-(3-(trifluoromethyl)phenyl)-1,4-dihydroquinoline-8-carboxamide]
26 | A (Fold activation>200%) | B (EC1.5 1-25 μM) | O=C(Nc1cccc2c(=O)cc(-c3cccc(C(F)(F)F)c3)[nH]c12)c1cncnc1 [Compound 421]
27 | A (Fold activation>200%) | A (EC1.5<1.0 μM) | Cn1c(-c2cccc(C(F)(F)F)c2)nc2c(NC(=O)c3cccc(CN4CCOCC4)n3)cccc2c1=O [Compound 332]
28 | A (Fold activation>200%) | A (EC1.5<1.0 μM) | O=C(Nc1nccs1)c1cccc2c(=O)cc(-c3cccc(C(F)F)c3)[nH]c12 [Compound 431]
29 | A (Fold activation>200%) | B (EC1.5 1-25 μM) | O=C(Nc1ccccn1)c1cccc2c(=O)[nH]c(-c3ccccc3OC(F)F)nc12 [Compound 328]
30 | A (Fold activation>200%) | A (EC1.5<1.0 μM) | O=C(Nc1cccc2c(=O)cc(-c3cccc(C(F)(F)F)c3)[nH]c12)c1ccns1 [Compound 411]
31 | A (Fold activation>200%) | B (EC1.5 1-25 μM) | Cn1c(-c2cccc(C(F)(F)F)c2)nc2c(C(=O)Nc3cccnc3)cccc2c1=O [Compound 265]
32 | A (Fold activation>200%) | A (EC1.5<1.0 μM) | Cn1cnc(C(=O)Nc2cccc3c(=O)n(C)c(-c4cccc(C(F)(F)F)c4)nc23)c1 [Compound 246]
33 | A (Fold activation>200%) | A (EC1.5<1.0 μM) | O=C(Nc1cccnc1)c1cccc2c(=O)cc(-c3ccccc3C(F)(F)F)[nH]c12 [Compound 437]
34 | A (Fold activation>200%) | A (EC1.5<1.0 μM) | Cn1c(-c2cccc(C(F)(F)F)c2)nc2c(C(=O)Nc3cccc(CN4CCOCC4)c3)cccc2c1=O [Compound 302]
35 | A (Fold activation>200%) | B (EC1.5 1-25 μM) | Cn1c(-c2cccc(N3CCOCC3)c2)nc2c(C(=O)Nc3ccccn3)cccc2c1=O [Compound 209]
36 | B (Fold Activation<200%) | B (EC1.5 1-25 μM) | CCn1c(-c2cccc(C(F)(F)F)c2)nc2c(C(=O)Nc3ccccn3)cccc2c1=O [Compound 269]
37 | A (Fold activation>200%) | A (EC1.5<1.0 μM) | COc1cccc(C(=O)Nc2cccc3c(=O)cc(-c4cccc(C(F)(F)F)c4)[nH]c23)n1 [Compound 422]
38 | B (Fold Activation<200%) | C (EC1.5>25 μM) | Cn1c(-c2cccc(C(F)(F)F)c2)nc2c(NS(=O)(=O)c3cccnc3)cccc2c1=O [Compound 361]
39 | B (Fold Activation<200%) | C (EC1.5>25 μM) | Cn1c(-c2cccc(C(F)(F)F)c2)nc2c(NC(=O)C3CCC(=O)N3)cccc2c1=O (stereo not shown) [Compound 339, N-(3-methyl-4-oxo-2-(3-(trifluoromethyl)phenyl)-3,4-dihydroquinazolin-8-yl)-5-oxopyrrolidine-2-carboxamide]
40 | A (Fold activation>200%) | B (EC1.5 1-25 μM) | O=C(NC1CCOCC1)c1cccc2c(=O)cc(-c3cccc(C(F)(F)F)c3)[nH]c12 [Compound 412]
41 | B (Fold Activation<200%) | C (EC1.5>25 μM) | Cn1cnc(-c2nc3c(C(=O)Nc4ccccn4)cccc3c(=O)n2C)c1 [Compound 261]
